The values below come from patent US5340833A, “Urokinase inhibitors” (Eisai Co., Ltd., priority 1992, dated 1994).

Where a name gives a salt, the structure may show the parent alone.

T3 sequence (P00750 311-562 limits assumed): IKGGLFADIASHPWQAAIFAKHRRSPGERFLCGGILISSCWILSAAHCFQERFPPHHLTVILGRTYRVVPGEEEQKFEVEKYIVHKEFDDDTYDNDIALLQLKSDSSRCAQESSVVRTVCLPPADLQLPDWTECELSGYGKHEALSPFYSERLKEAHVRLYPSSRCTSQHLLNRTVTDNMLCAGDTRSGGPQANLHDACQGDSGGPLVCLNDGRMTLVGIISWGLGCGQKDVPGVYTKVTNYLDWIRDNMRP
T3 sequence (P00750 36-310 limits assumed): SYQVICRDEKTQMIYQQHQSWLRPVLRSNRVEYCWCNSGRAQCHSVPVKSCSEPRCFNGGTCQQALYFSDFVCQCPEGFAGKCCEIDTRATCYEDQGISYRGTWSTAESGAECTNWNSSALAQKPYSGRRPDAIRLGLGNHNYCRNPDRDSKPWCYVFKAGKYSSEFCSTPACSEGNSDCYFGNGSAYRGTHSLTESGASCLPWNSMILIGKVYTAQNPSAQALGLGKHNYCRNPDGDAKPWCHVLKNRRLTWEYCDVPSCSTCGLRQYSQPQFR
T2 sequence (P00747 581-810 limits assumed): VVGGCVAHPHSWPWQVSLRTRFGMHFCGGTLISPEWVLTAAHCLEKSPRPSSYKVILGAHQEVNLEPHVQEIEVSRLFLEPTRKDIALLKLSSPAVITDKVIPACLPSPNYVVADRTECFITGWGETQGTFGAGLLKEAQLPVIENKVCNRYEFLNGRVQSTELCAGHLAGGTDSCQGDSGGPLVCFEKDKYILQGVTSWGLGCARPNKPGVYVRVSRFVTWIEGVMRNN
T2 sequence (P00747 97-580 limits assumed): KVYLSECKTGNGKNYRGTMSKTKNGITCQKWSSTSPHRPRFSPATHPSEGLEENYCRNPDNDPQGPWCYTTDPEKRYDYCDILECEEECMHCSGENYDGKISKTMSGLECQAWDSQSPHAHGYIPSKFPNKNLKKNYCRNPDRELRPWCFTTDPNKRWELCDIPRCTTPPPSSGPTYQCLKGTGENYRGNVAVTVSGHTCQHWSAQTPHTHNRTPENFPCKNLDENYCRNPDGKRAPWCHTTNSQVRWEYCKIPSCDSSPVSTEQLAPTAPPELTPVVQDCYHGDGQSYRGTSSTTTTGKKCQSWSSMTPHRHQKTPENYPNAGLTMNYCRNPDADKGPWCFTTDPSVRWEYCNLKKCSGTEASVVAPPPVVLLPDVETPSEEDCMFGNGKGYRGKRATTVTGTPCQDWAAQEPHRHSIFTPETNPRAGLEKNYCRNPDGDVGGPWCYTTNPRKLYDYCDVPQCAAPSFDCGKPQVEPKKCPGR

The first test concerns the target T1, human high molecular weight urokinase (Homo sapiens, UniProt P00749).
T1 construct: human high molecular weight urokinase; purchased American Diagnostica, Greenwich, Conn
Nature of the test: Urokinase Direct Assay. The test is classed as biochemical. Particulars: inhibitor concentration of 1 mM. The procedure:
(i) A direct chromogenic assay in which urokinase cleaves a synthetic tripeptide p-nitroanilide (pNA) urokinase substrate.
Incubations were carried out at 37° C. for approximately 2 hours or until adequate yellow color developed. Color was quantitated by measuring absorbance at 405 nm (A405) using a Titertek Multiskan MCC/340 MK II microtiter plate spectrophotometer.
Regarding “4-(7-Amidino-E-hept-1-enyl)benzo[b]thiophene-2-carboxamidine bishydrochloride [Compound 33]”, the “uPA Direct: percentage of residual urokinase activity relative to inhibitor-free controls” value is reported as 1.3%.

The same test, now with this note: read-out: uPA Direct: percentage of residual urokinase activity relative to inhibitor-free controls; heading: uPA Direct: percentage of residual urokinase activity relative to inhibitor-free controls; inhibitor concentration of 1 mM.
As to `CCC(C)Cc1cccc2sc(C(=N)N)cc12` (racemic) [Compound 11, 4-([R/S]-2-Methylbutyl)benzo[b]thiophene-2-carboxamidine hydrochloride], the residual urokinase activity at 1000 µM stood at 2.3%.
Turning to `N=C(N)c1cc2c(C3CCCO3)cccc2s1` (racemic) [Compound 61, 4-([R,S]-Tetrahydrofuran-2-yl)benzo[b]thiophene-2-carboxamidine hydrochloride], the residual urokinase activity at 1000 µM was 0.6%.
The same measure, in the same setting: in the case of `CCC(C)Cc1ccc2sc(C(=N)N)cc2c1` (racemic) [Compound 109, 5-([R/S]-2-Methylbutyl)benzo[b]thiophene-2-carboxamidine hydrochloride] it was 6.6%; in that of `N=C(N)c1cc2c(F)cccc2s1` [Compound 2, 4-Fluorobenzo[b]thiophene-2-carboxamidine hydrochloride], 7.2%.
Turning to `N=C(N)c1cc2c(Cl)cccc2s1` [Compound 3, 4-Chlorobenzo[b]thiophene-2-carboxamidine hydrochloride], the residual urokinase activity at 1000 µM came to 3%.
For `N=C(N)c1cc2c(Br)cccc2s1` [Compound 4, 4-Bromobenzo[b]thiophene-2-carboxamidine hydrochloride], the residual urokinase activity at 1000 µM was found to be 0.8%.
On the same count and under the same terms, in the case of `CC(C)c1cccc2sc(C(=N)N)cc12` [Compound 8, 4-(1-Methylethyl)benzo[b]thiophene-2-carboxamidine hydrochloride] it was 0.9%; in that of `N=C(N)c1cc2c(CCC3CC3)cccc2s1` [Compound 14, 4-(2-Cyclopropylethyl)benzo[b]thiophene-2-carboxamidine hydrochloride], 0.54%; in that of `N=C(N)c1cc2c(CCc3ccccc3)cccc2s1` [Compound 15, 4-(2-Phenylethyl)benzo[b]thiophene-2-carboxamidine hydrochloride], 0.35%.
Same read-out and setting: in the case of `CC(c1ccccc1)c1cccc2sc(C(=N)N)cc12` (stereo not shown) [Compound 16, 4-(1-Phenylethyl)benzo[b]thiophene-2-carboxamidine hydrochloride] it was 1.4%; in that of `C=C(C)c1cccc2sc(C(=N)N)cc12` [Compound 18, 4-(1-Methylethenyl)benzo[b]thiophene-2-carboxamidine hydrochloride], 1.3%.
With `CCC=Cc1cccc2sc(C(=N)N)cc12` [Compound 20, 4-(E/Z-But-1-enyl)benzo[b]thiophene-2-carboxamidine hydrochloride], the residual urokinase activity at 1000 µM was determined as 0.8%.
On the same count and under the same terms, under `CCC(C)=Cc1cccc2sc(C(=N)N)cc12` [Compound 21, 4-(E/Z-2-Methylbut-1-enyl)benzo[b]thiophene-2-carboxamidine hydrochloride] stands 1.1%; under `CCC(/C=C/c1cccc2sc(C(=N)N)cc12)CC` [Compound 28, 4-(E-3-ethylpent-1-enyl)benzo[b]thiophene-2-carboxamidine hydrochloride], 0.46%; under `CCCCCCCC/C=C/c1cccc2sc(C(=N)N)cc12` [Compound 31, 4-(E-Dec-1-enyl)benzo[b]thiophene-2-carboxamidine hydrochloride], 5.2%.
As for `N=C(N)c1cc2c(/C=C/CCCO)cccc2s1` [Compound 32, 4-(E-5-Hydroxypent-1-enyl)benzo[b]thiophene-2-carboxamidine hydrochloride], the residual urokinase activity at 1000 µM stood at 0.67%.
Regarding `N=C(N)c1cc2c(C=CC3CC3)cccc2s1` [Compound 34, 4-(E/Z-2-Cyclopropylethenyl)benzo[b]thiophene-2-carboxamidine. hydrochloride], the residual urokinase activity at 1000 µM came out at 0.46%.
Turning to `N=C(N)c1cc2c(C=C(Br)Br)cccc2s1` [Compound 38, 4-(2,2-Dibromoethenyl)benzo[b]thiophene-2-carboxamidine hydrochloride], the residual urokinase activity at 1000 µM was found to be 4.8%.
The same measure, in the same setting: under `CC(C)(O)C#Cc1cccc2sc(C(=N)N)cc12` [Compound 42, 4-(3-Hydroxy-3-methylbut-1-ynyl)benzo[b]thiophene-2-carboxamidine hydrochloride] stands 0.6%; under `COc1ccc(-c2cccc3sc(C(=N)N)cc23)cc1` [Compound 45, 4-(4-Methoxyphenyl)benzo[b]thiophene-2-carboxamidine hydrochloride], 6%.
As to `N=C(N)c1cc2c(-c3ccc([N+](=O)[O-])cc3)cccc2s1` [Compound 46, 4-(4-Nitrophenyl)benzo[b]thiophene-2-carboxamidine hydrochloride], the residual urokinase activity at 1000 µM amounted to 1%.
Still for that read-out and setting: in the case of `N=C(N)c1ccc(-c2cccc3sc(C(=N)N)cc23)cc1` [Compound 47, 4-(4-Carboxamidinophenyl)benzo[b]thiophene-2-carboxamidine bis-hydrochloride] it was 7.6%.
On the same count and under the same terms, in the case of `N=C(N)c1cc2c(-c3cccc4sc(C(=N)N)cc34)cccc2s1` [Compound 52, Bis-(2-carboxamidinobenzo[b]thien-4-yl) bis-hydrochloride] it was 2.7%; in that of `N=C(N)c1cc2c(C(F)(F)F)cccc2s1` [Compound 54, 4-(Trifluoromethyl)benzo[b]thiophene-2-carboxamidine hydrochloride], 2.4%.
On the same count and under the same terms, in the case of `N=C(N)c1cc2c(C=O)cccc2s1` [Compound 55, 4-Formylbenzo[b]thiophene-2-carboxamidine hydrochloride] it was 4.8%; in that of `COc1cccc2sc(C(=N)N)cc12` [Compound 57, 4-Methoxybenzo[b]thiophene-2-carboxamidine hydrochloride], 12%; in that of `C=CCSc1cccc2sc(C(=N)N)cc12` [Compound 59, 4-(Prop-2-en-1-ylthio)benzo[b]thiophene-2-carboxamidine hydrochloride], 1.1%.
On to `N=C(N)c1cc2c(SCc3ccccc3)cccc2s1` [Compound 60, 4-(Benzylthio)benzo[b]thiophene-2-carboxamidine hydrochloride], for which the residual urokinase activity at 1000 µM came out at 1.3%.
For `N=C(N)c1cc2c(N3CCOCC3)cccc2s1` [Compound 62, 4-(1-Morpholino)benzo[b]thiophene-2-carboxamidine hydrochloride], the residual urokinase activity at 1000 µM was 3.6%.
On the same count and under the same terms, under `N=C(N)c1cc2c(C#Cc3ccccc3)cccc2s1` [Compound 76, 4-(Phenylethynyl)benzo[b]thiophene-2-carboxamidine hydrochloride] stands 1.1%; under `N=C(N)c1cc2c(-c3ccc(-c4ccc5c(c4)OCO5)o3)cccc2s1` [Compound 79, 4-[5-(Benzo-1,3-dioxolan-5-yl)fur-2-yl]benzo[b]thiophene-2-carboxamidine hydrochloride], 1.5%.

Another test addresses T2, human plasmin (Homo sapiens, UniProt P00747).
T2 construct: plasmin, the potent general protease produced by cleavage of plasminogen by either urokinase or tPA; purchased American Diagnostica
The test can be described thus: Plasmin Assay. The conditions noted are these: read-out: PLASMIN IC50. Format: biochemical. The procedure: (v) A chromogenic pNA assay for plasmin, the potent general protease produced by cleavage of plasminogen by either urokinase or tPA. Although urokinase initiates cellular invasiveness by generating plasmin, the additional importance of plasmin in tPA-mediated fibrinolysis dictates that plasmin itself should be free from inhibition by urokinase inhibitors designed as anti-invasiveness agents. […] All other assay conditions, as well as methods of color quantitation, were carried out as described above for the urokinase direct assay.
As for `Cc1cccc2sc(C(=N)N)cc12` [Compound 6, 4-Methylbenzo[b]thiophene-2-carboxamidine hydrochloride], the IC50 came to 881 µM.

The next test concerns the target T3, human two-chain tPA (Homo sapiens, UniProt P00750).
T3 construct: human two-chain tPA was substituted for urokinase; purchased American Diagnostica
Nature of the test: tPA Indirect (Plasminogen-Linked) Assay (tPA Direct Assay result where lower). The conditions noted are these: tPA Indirect Plasminogen-Linked Assay; in rare cases direct assay result if lower; read-out: tPA IC50. Format: biochemical. From the text: (iv) Both direct and plasminogen-linked pNA assays for tPA, the other mammalian plasminogen activator and the key initiator of blood clot dissolution or fibrinolysis. Since urokinase and tPA share an absolute specificity for the same peptide bond in plasminogen, urokinase inhibitors designed to block cellular invasiveness must be highly specific for urokinase over tPA in order to avoid serious thrombotic side effects secondary to undesired blockage of normal fibrinolysis. […] Spectrozyme tPA®, American Diagnostica) was substituted for urokinase substrate.
Turning to `Cc1cccc2sc(C(=N)N)cc12` [Compound 6, 4-Methylbenzo[b]thiophene-2-carboxamidine hydrochloride], the IC50 was 478 µM.

In general, IC50 refers to the concentration at which inhibition is half-maximal.
